# Structures can show the parent of a compound that is named as a salt.
# Columns and labels:
# D(2) dopamine receptor = D(2) dopamine receptor (Homo sapiens, UniProt P14416); experiment: (§1) PDSP Secondary Binding target: DRD2 - Compounds are tested at 10 uM concentration, plate are incubated at room temperature in the dark for 90 minutes. Reaction are stopped by vacuum filtration onto 0.3% polyethyleneimine soaked filter mats using Filtermate harvester. Scintillation cocktail is then melted onto microwave-dried filters on a hot plate and the radio activity is counted in Microbia counter.
# Sequence of D(2) dopamine receptor (P14416 whole entry): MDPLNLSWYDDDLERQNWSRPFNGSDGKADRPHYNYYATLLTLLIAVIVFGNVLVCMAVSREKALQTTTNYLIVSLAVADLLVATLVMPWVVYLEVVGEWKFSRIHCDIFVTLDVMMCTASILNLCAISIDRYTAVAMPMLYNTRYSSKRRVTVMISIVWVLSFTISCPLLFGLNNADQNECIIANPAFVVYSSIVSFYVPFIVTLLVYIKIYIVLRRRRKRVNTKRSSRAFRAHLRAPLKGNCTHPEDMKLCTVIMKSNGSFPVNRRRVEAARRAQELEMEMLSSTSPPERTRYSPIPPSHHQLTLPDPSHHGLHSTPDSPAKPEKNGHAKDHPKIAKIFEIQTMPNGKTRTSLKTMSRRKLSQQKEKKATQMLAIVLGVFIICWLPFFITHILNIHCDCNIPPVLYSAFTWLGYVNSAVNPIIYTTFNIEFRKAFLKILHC
# [1] = biological target: Sigma non-opioid intracellular receptor 1 (Homo sapiens, UniProt Q99720); experiment: as §1, with “SIGMAR1” for “DRD2”
# Sequence of Sigma non-opioid intracellular receptor 1 (Q99720 whole entry): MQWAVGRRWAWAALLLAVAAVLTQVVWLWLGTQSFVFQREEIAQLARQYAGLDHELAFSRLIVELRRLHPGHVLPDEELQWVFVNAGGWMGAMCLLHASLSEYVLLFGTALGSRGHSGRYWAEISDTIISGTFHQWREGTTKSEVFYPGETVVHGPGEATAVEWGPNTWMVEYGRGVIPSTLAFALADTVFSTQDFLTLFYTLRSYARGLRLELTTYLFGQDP
# D(1B) dopamine receptor = D(1B) dopamine receptor (Homo sapiens, UniProt P21918); experiment: as §1, with “DRD5” for “DRD2”
# Sequence of D(1B) dopamine receptor (P21918 whole entry): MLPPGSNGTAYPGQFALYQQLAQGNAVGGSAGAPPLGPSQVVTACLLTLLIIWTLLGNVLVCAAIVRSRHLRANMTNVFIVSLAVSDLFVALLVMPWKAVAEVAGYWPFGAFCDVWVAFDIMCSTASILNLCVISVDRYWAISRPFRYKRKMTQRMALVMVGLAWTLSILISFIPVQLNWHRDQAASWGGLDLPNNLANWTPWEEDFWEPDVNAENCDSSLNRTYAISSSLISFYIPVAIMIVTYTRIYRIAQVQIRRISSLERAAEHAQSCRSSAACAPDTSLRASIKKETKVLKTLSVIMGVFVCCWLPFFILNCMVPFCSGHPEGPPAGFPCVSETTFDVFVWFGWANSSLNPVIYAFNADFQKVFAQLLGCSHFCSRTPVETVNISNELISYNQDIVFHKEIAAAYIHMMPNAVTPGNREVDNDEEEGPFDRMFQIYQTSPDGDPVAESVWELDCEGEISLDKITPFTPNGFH
# [2] = biological target: T1, 5-hydroxytryptamine receptor 2C (Homo sapiens, UniProt P28335); experiment: as §1, with “HTR2C” for “DRD2”
# T1 sequence (P28335 whole entry): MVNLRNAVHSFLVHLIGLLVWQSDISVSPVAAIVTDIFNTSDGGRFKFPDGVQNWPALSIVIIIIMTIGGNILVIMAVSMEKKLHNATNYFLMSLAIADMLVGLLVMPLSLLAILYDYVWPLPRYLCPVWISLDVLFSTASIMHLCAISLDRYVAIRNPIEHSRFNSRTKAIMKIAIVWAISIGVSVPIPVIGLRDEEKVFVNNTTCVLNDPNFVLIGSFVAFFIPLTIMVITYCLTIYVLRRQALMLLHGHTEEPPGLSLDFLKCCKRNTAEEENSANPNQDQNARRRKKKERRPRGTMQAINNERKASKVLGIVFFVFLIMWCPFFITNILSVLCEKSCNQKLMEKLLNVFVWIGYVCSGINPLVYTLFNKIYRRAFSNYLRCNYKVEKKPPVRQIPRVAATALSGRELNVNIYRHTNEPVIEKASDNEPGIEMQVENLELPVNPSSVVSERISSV
# [3] = biological target: Sodium-dependent noradrenaline transporter (Homo sapiens, UniProt P23975); experiment: as §1, with “SLC6A2” for “DRD2”
# Sequence of Sodium-dependent noradrenaline transporter (P23975 whole entry): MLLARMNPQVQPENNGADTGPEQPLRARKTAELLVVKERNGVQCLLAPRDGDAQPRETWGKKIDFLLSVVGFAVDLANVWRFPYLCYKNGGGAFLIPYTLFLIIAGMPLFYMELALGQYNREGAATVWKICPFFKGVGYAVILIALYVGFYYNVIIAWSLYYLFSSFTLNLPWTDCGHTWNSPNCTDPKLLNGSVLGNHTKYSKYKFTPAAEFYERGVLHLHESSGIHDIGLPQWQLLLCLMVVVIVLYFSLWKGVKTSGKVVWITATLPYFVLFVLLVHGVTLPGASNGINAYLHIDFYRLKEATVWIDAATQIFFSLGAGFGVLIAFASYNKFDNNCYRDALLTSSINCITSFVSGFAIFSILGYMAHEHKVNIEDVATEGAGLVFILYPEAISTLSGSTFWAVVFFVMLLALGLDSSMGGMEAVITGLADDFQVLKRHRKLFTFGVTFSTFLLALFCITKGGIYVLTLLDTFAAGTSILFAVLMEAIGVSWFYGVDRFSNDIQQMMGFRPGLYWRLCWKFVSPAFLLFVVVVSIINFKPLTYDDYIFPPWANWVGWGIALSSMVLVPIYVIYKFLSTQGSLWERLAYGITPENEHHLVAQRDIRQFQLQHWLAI
# [4] = biological target: Sodium-dependent serotonin transporter (Homo sapiens, UniProt P31645); experiment: as §1, with “SLC6A4” for “DRD2”
# Sequence of Sodium-dependent serotonin transporter (P31645 whole entry): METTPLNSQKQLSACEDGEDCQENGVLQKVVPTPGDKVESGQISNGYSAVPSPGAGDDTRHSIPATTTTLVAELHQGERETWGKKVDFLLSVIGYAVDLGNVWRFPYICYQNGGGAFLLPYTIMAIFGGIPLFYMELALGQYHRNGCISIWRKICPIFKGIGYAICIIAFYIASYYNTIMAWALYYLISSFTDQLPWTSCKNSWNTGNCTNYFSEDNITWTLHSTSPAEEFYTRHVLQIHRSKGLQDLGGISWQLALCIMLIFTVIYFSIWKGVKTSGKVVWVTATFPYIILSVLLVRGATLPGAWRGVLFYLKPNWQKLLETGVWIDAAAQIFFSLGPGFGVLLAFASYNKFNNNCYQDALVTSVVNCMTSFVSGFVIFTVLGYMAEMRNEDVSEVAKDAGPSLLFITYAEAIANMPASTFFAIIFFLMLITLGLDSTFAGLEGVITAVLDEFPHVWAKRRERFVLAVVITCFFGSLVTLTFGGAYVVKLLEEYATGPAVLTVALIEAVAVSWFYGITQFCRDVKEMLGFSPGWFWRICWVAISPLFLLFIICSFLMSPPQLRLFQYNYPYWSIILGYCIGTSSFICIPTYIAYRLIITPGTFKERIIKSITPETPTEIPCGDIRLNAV
# [5] = biological target: 5-hydroxytryptamine receptor 2A (Homo sapiens, UniProt P28223); experiment: as §1, with “HTR2A” for “DRD2”
# Sequence of 5-hydroxytryptamine receptor 2A (P28223 whole entry): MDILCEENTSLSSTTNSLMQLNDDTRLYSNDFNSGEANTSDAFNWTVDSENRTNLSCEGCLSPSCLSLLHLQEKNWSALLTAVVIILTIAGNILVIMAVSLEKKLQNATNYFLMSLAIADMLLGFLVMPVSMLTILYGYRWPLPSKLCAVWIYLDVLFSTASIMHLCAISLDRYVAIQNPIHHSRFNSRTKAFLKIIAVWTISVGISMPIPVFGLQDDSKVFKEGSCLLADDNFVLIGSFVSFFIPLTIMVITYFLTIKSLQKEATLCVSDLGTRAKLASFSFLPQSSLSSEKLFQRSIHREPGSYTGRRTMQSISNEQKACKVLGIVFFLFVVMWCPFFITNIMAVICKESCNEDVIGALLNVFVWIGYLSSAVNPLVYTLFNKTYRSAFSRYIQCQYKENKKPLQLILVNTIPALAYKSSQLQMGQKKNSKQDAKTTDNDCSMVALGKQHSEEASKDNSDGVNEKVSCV
# [6] = biological target: T2, Alpha-2A adrenergic receptor (Homo sapiens, UniProt P08913); experiment: as §1, with “ADRA2A” for “DRD2”
# T2 sequence (P08913 whole entry): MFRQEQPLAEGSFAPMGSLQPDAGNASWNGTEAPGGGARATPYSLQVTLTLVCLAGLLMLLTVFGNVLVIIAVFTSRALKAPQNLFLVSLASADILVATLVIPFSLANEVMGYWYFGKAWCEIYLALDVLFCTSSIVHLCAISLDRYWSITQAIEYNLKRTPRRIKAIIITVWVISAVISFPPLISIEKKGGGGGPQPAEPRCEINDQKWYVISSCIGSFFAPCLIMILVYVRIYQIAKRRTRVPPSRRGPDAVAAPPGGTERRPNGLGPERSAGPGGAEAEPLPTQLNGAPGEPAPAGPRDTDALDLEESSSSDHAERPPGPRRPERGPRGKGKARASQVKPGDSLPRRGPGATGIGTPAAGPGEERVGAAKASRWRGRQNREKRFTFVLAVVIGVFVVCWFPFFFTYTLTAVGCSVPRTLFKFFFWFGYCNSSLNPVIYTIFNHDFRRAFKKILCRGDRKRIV
# [7] = biological target: Sigma intracellular receptor 2 (Homo sapiens, UniProt Q5BJF2); experiment: as §1, with “TMEM97” for “DRD2”
# Sequence of Sigma intracellular receptor 2 (Q5BJF2 whole entry): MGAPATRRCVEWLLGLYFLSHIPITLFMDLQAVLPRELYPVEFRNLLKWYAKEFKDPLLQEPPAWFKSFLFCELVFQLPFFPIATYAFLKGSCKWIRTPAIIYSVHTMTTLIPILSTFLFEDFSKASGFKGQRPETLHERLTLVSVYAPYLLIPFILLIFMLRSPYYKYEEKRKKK
# Mu-type opioid receptor = Mu-type opioid receptor (Homo sapiens, UniProt P35372); experiment: as §1, with “OPRM1” for “DRD2”
# Sequence of Mu-type opioid receptor (P35372 whole entry): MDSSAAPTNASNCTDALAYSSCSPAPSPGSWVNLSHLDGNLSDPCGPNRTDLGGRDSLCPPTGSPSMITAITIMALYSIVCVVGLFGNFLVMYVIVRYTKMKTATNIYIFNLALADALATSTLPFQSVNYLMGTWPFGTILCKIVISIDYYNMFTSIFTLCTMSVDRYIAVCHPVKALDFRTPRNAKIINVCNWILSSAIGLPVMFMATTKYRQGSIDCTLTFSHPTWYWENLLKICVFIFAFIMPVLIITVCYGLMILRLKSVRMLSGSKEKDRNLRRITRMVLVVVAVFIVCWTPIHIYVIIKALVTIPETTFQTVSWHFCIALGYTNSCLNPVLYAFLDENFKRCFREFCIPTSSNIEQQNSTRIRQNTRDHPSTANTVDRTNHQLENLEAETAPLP
# [8] = biological target: 5-hydroxytryptamine receptor 2B (Homo sapiens, UniProt P41595); experiment: as §1, with “HTR2B” for “DRD2”
# [9] = biological target: Sodium-dependent dopamine transporter (Homo sapiens, UniProt Q01959); experiment: as §1, with “SLC6A3” for “DRD2”
# Sequence of Sodium-dependent dopamine transporter (Q01959 whole entry): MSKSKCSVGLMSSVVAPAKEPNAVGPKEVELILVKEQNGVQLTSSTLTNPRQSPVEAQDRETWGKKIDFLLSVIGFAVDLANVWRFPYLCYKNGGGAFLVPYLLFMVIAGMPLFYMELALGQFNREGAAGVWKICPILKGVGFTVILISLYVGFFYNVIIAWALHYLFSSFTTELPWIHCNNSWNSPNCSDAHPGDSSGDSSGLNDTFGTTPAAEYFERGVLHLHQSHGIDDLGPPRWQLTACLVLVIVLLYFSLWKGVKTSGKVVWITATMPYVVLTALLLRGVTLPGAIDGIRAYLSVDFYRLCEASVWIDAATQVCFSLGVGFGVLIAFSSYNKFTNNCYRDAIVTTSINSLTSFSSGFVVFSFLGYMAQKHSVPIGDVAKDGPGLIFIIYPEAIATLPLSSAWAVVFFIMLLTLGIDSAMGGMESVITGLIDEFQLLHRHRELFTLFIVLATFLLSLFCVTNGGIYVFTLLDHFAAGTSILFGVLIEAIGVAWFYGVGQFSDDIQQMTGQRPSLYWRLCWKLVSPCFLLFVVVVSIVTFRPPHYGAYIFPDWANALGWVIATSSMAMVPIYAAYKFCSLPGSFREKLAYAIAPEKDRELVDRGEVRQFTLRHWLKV
# [10] = biological target: Kappa-type opioid receptor (Homo sapiens, UniProt P41145); experiment: as §1, with “OPRK1” for “DRD2”
# D(4) dopamine receptor = biological target: T3, D(4) dopamine receptor (Homo sapiens, UniProt P21917); experiment: as §1, with “DRD4” for “DRD2”
# T3 sequence (P21917 whole entry): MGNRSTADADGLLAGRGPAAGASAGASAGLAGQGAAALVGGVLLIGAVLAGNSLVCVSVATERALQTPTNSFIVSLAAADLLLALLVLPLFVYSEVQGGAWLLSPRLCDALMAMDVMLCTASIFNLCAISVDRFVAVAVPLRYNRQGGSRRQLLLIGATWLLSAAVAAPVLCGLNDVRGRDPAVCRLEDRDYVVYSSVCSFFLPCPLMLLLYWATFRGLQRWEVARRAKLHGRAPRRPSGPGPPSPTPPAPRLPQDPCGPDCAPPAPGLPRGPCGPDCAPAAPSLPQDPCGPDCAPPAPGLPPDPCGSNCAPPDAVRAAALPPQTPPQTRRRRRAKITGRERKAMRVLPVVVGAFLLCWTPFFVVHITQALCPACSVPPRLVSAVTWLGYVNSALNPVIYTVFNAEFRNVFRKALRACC
# [11] = biological target: T4, Muscarinic acetylcholine receptor M5 (Homo sapiens, UniProt P08912); experiment: as §1, with “CHRM5” for “DRD2”
# T4 sequence (P08912 whole entry): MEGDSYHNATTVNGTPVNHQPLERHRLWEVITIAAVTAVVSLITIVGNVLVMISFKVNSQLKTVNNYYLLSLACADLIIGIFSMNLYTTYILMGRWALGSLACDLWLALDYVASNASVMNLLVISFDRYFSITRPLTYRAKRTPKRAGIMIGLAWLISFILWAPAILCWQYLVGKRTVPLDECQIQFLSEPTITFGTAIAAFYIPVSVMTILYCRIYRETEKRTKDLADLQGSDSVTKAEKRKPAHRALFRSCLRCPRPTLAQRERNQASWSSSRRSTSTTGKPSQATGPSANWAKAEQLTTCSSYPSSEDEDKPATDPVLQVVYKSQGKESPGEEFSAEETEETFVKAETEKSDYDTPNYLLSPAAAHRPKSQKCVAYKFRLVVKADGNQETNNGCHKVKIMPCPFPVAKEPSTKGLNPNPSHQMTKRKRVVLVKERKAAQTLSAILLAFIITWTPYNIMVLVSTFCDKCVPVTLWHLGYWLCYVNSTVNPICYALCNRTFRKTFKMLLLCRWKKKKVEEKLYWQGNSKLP
# D(3) dopamine receptor = D(3) dopamine receptor (Homo sapiens, UniProt P35462); experiment: as §1, with “DRD3” for “DRD2”
# [12] = biological target: T5, Alpha-2B adrenergic receptor (Homo sapiens, UniProt P18089); experiment: as §1, with “ADRA2B” for “DRD2”
# T5 sequence (P18089 whole entry): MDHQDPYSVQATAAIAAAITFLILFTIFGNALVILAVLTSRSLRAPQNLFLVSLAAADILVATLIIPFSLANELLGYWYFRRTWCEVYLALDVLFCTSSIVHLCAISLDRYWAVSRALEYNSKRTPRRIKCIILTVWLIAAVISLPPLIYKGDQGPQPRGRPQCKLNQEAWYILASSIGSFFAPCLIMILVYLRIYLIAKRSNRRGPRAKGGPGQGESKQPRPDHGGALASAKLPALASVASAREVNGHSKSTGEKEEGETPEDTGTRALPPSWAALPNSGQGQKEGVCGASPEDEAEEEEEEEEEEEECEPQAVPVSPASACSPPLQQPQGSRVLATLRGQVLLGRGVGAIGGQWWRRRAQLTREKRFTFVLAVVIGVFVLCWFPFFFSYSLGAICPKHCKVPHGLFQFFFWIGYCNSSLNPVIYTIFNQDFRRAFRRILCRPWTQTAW
# Translocator protein = Translocator protein (Homo sapiens, UniProt P30536); experiment: as §1, with “TSPO” for “DRD2”
# Sequence of Translocator protein (P30536 whole entry): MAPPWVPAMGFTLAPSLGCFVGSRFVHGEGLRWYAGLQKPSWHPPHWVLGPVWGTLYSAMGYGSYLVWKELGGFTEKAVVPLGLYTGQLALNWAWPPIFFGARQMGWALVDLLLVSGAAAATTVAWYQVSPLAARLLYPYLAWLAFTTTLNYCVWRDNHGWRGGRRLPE
# [13] = biological target: 5-hydroxytryptamine receptor 7 (Homo sapiens, UniProt P34969); experiment: as §1, with “HTR7” for “DRD2”
# [14] = biological target: 5-hydroxytryptamine receptor 5A (Homo sapiens, UniProt P47898); experiment: as §1, with “HTR5A” for “DRD2”
# [15] = biological target: 5-hydroxytryptamine receptor 1B (Homo sapiens, UniProt P28222); experiment: as §1, with “HTR1B” for “DRD2”
# Histamine H1 receptor = Histamine H1 receptor (Homo sapiens, UniProt P35367); experiment: as §1, with “HRH1” for “DRD2”
# Sequence of Histamine H1 receptor (P35367 whole entry): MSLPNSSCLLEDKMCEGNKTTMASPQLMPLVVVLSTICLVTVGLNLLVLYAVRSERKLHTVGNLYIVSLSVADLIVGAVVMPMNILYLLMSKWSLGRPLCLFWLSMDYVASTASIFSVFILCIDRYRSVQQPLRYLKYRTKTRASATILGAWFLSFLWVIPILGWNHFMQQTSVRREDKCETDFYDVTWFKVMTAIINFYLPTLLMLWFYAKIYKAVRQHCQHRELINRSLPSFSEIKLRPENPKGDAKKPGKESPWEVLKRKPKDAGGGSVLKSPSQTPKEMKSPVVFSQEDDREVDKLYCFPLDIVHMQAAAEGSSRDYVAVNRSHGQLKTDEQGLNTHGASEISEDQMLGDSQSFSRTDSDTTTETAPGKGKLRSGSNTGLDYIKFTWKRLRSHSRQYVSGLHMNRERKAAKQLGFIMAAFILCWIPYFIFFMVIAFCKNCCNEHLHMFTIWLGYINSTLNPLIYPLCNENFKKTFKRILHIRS
# [16] = biological target: T6, Alpha-2C adrenergic receptor (Homo sapiens, UniProt P18825); experiment: as §1, with “ADRA2C” for “DRD2”
# T6 sequence (P18825 whole entry): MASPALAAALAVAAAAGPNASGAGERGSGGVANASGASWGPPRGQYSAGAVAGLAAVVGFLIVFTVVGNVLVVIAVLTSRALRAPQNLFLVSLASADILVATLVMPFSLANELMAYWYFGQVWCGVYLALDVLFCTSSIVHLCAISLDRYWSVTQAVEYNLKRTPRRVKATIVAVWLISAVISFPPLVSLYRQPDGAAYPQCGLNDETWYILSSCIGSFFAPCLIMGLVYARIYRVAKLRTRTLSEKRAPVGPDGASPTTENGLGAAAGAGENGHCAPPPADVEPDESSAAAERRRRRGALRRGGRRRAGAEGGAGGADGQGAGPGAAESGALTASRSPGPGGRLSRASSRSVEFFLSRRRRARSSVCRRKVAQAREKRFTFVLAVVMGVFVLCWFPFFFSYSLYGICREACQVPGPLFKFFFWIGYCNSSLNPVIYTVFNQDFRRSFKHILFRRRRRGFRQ
Ki (D(2) dopamine receptor) [µM],Ki [1] [µM],Ki [3] [µM],Ki [4] [µM],Ki [7] [µM],Ki (Mu-type opioid receptor) [µM],Ki [9] [µM],SMILES,also measured
8.81,,,,,,,CC(C)(C(=O)O)c1ccc(C(O)CCCN2CCC(C(O)(c3ccccc3)c3ccccc3)CC2)cc1 (stereo unspecified) [FEXOFENADINE HYDROCHLORIDE],
,2.61,,,,,,OC[C@H]1O[C@@H](n2cnc3c(NC4CCCC4)ncnc32)[C@H](O)[C@@H]1O [N6-CYCLOPENTYLADENOSINE],Ki (D(1B) dopamine receptor): > 10 µM
0.596,1.7,1.09,0.995,0.956,,,Cc1cc(NC(=O)NCCN2CCC(O)(Cc3ccccc3)CC2)c2ccccc2n1 [PALOSURAN],Ki [2]: 0.139 µM; Ki [5]: 1.59 µM; Ki [6]: 1.02 µM
,,2.54,,0.509,3.14,3.46,O=C(c1cc2c(cc1F)OC(c1ccc(F)cc1)(c1ccc(Cl)cc1Cl)O2)N1CCOCC1 (stereo unspecified),Ki [2]: 0.319 µM; Ki [8]: 0.607 µM; Ki [10]: 0.503 µM; Ki [5]: 2.66 µM; Ki (D(1B) dopamine receptor): 0.708 µM
3.85,,,,,,,O=c1ccn([C@@H]2O[C@H](COP(=O)(O)OP(=O)(O)OP(=O)(O)O)[C@@H](O)[C@H]2O)c(=O)[nH]1,Ki (D(4) dopamine receptor): 8.73 µM; Ki (Translocator protein): 4.78 µM
,0.256,1.67,0.304,0.113,0.249,0.734,COc1ccccc1N1CCN(CCCCNC(=O)c2ccc3ccccc3c2)CC1,Ki (Translocator protein): 1.18 µM; Ki [13]: 0.0298 µM; Ki [14]: 0.754 µM; Ki [12]: 0.132 µM; Ki [15]: 0.166 µM; Ki (Histamine H1 receptor): 0.125 µM; Ki [16]: 0.0836 µM

SMILES,Ki (D(2) dopamine receptor) [µM],Ki [1] [µM],Ki [3] [µM],Ki [4] [µM],Ki [7] [µM],Ki (Mu-type opioid receptor) [µM],Ki [9] [µM],also measured
OC1(c2ccc(Cl)cc2)CCN(Cc2c[nH]c3ccccc23)CC1,,,1.47,0.0295,0.269,0.0515,1.4,Ki (D(4) dopamine receptor): 0.569 µM; Ki [11]: 0.579 µM; Ki (D(3) dopamine receptor): 0.205 µM; Ki [12]: 0.602 µM; Ki [6]: 3.85 µM

# — ChEMBL document CHEMBL5442175, “EUbOPEN Chemogenomics Library - PDSP Secondary Binding” (2024)
